Laboratory results reported in US20250049948A1, “NOVEL IONIZABLE LIPIDS AND LIPID NANOPARTICLES AND METHODS OF USING THE SAME” (Sail Biomedicines, Inc., priority 2021, published 2025).

Key:
[1] = Apparent LNP pKa, TNS assay; format: physicochemical; conditions: LNP with FLUC/EPO 1:1 mRNA
Method: For pKa measurement, a […] assay was conducted according to those described in Sabnis et al., Molecular Therapy, 26(6):1509-19), which is incorporated herein by reference in its entirety. Briefly, 20 buffers (10 mM sodium phosphate, 10 mM sodium borate, 10 mM sodium citrate, and 150 mM sodium chloride, in distilled Water) of unique pH values ranging from 3.0-12.0 were prepared using 1M sodium hydroxide and 1M hydrochloric acid. 3.25 μL of a LNP composition (0.04 mg/mL mRNA, in PBS) was incubated with 2 μL of TNS reagent (0.3 mM, in DMSO) and 90 μL of buffer for each pH value (described above) in a 96-well black-walled plate. Each pH condition was performed in triplicate wells. The TNS fluorescence was measured using a Biotek Cytation Plate reader at excitation/emission wavelengths of 321/445 nm. The fluorescence values were then plotted and fit using a 4-parameter sigmoid curve. From the fit, the pH value yielding the half-maximal fluorescence was calculated and reported as the apparent LNP pKa value.

[2] = test system: Balb/c mice; experiment: EPO levels in plasma, EPO MSD kit (Example 6); format: in vivo; conditions: mRNA dose 5 μg FLUC + 5 μg EPO, intravenous
[3] = test system: Balb/c mice; experiment: In-vivo bioluminescent imaging of LNP compositions (Example 6); conditions: for Bioluminescence (IV) Liver / Bioluminescence (IV) Lung / Bioluminescence (IV) Spleen / Bioluminescence (IV) Whole Body: 4-6 hours post-dose; for Spleen: Liver Ratio: intravenous
[4] = mRNA encapsulation efficiency, Quant-iT RiboGreen RNA Assay; format: physicochemical
Method: (§1) For each LNP composition, the lipid mix and mRNA solution were mixed at a 1:3 ratio by volume, respectively, on a NanoAssemblr Ignite (Precision Nanosystems) at a total flow rate of 9 mL/min. The resulting compositions were then loaded into Slide-A-Lyzer G2 dialysis cassettes (10 k MWCO) and dialyzed in 200 times sample volume of 1×PBS for 2 hours at room temperature with gentle stirring. The PBS was refreshed, and the compositions were further dialyzed for at least 14 hours at 4° C. with gentle stirring. The dialyzed compositions were then collected and concentrated by centrifugation at 3000×g using Amicon Ultra centrifugation filters (100 k MWCO). The concentrated particles were characterized for size, polydispersity, and particle concentration using Zetasizer Ultra (Malvern Panalytical) and for mRNA encapsulation efficiency using Quant-iT RiboGreen RNA Assay Kit (ThermoFisher Scientific).

[5] = LNP size and polydispersity, Zetasizer Ultra; format: physicochemical
Method: as §1

[6] = mRNA dose 5 μg FLUC (CRE/FLUC 1:1 LNP)

| Structure (SMILES) | pKa (TNS) [1] | hEPO [2] | Bioluminescence (IV) Liver ([3]; mRNA dose 5 μg FLUC + 5 μg EPO) | Bioluminescence (IV) Lung ([3]; mRNA dose 5 μg FLUC + 5 μg EPO) | Bioluminescence (IV) Spleen ([3]; mRNA dose 5 μg FLUC + 5 μg EPO) | Bioluminescence (IV) Whole Body ([3]; mRNA dose 5 μg FLUC + 5 μg EPO) | Spleen: Liver Ratio ([3]; mRNA dose 5 μg FLUC + 5 μg EPO) | % EE ([4]; LNP with FLUC/EPO 1:1 mRNA) | PDI ([5]; LNP with FLUC/EPO 1:1 mRNA) | Size (nm) ([5]; LNP with FLUC/EPO 1:1 mRNA) | further results |
| --- | --- | --- | --- | --- | --- | --- | --- | --- | --- | --- | --- |
| CCCCCCCCCCCOC(=O)CCCCCN(CCCCCCCC(=O)OC(CCCCCCCC)CCCCCCCC)C(C)CO (centres unmarked) [Compound 2249, heptadecan-9-yl 8-((1-hydroxypropan-2-yl)(6-oxo-6-(undecyloxy)hexyl)amino)octanoate] | 5.84 | 7.6E + 05 | 1.2E + 07 | 7.9E + 03 | 3.2E + 06 | 7.2E + 07 | 0.258 | 93.3% | 0.08 | 86.05 nm |  |
| CCCCCC(CCCCC)CCCOC(=O)CCCCCCCN(CCCCCCCC(=O)OCCCC(CCCCC)CCCCC)C(=O)CCN1CCC(O)C1 (centres unmarked) [Compound 2235, bis(4-pentylnonyl) 8,8′-((3-(3-hydroxypyrrolidin-1-yl)propanoyl)azanediyl)dioctanoate] | 7.76 | 2.2E + 02 | 2.0E + 03 | 7.6E + 03 | 2.9E + 04 | 9.8E + 03 | 14.407 | 97.5% | 0.067 | 84.84 nm |  |
| CCCCCCCCCCCOC(=O)CCCCCN(CCCCCCCC(=O)OC(CCCCCCCC)CCCCCCCC)C(C)(C)CO [Compound 2250, heptadecan-9-yl 8-((1-hydroxy-2-methylpropan-2-yl)(6-oxo-6-(undecyloxy)hexyl)amino)octanoate] | 6.31 | 9.5E + 05 | 2.7E + 07 | 7.9E + 03 | 2.7E + 06 | 1.5E + 08 | 0.099 | 92.2% | 0.068 | 73.75 nm |  |
| CCCCCCCCC(CCCCCC)C(=O)OCCCCCCN(CCCCCCOC(=O)C(CCCCCC)CCCCCCCC)CCC(O)CN(C)C (centres unmarked) [Compound 2225, ((4-(dimethylamino)-3-hydroxybutyl)azanediyl) bis(hexane-6,1-diyl) bis(2-hexyldecanoate)] | 7.25 |  | 1.8E + 05 | 1.0E + 04 | 2.2E + 05 | 3.5E + 05 | 1.261 | 97.9% | 0.07 | 81.88 nm |  |
| CCCCCC(CCCCC)CCCOC(=O)CCCCCCCN(CCCCCCCC(=O)OCCCC(CCCCC)CCCCC)C(=O)CCN1CCCC1 [Compound 2141, bis(4-pentylnonyl) 8,8′-((3-(pyrrolidin-1-yl)propanoyl)azanediyl)dioctanoate] | 7.57 | 2.1E + 03 | 3.1E + 04 | 6.8E + 04 | 1.3E + 05 | 1.9E + 05 | 6.131 | 95.9% | 0.06 | 73.83 nm | Bioluminescence (IV) Liver [3, 6]: 5.6E + 05; Bioluminescence (IV) Lung [3, 6]: 7.1E + 03; Bioluminescence (IV) Spleen [3, 6]: 2.3E + 05; Bioluminescence (IV) Whole Body [3, 6]: 5.5E + 06; Spleen: Liver Ratio [3, 6]: 0.527; % EE ([4]; LNP with CRE/FLUC 1:1 mRNA): 95.6%; % EE ([4]; LNP with EGFP mRNA): 95.4%; PDI ([5]; LNP with CRE/FLUC 1:1 mRNA): 0.11; Size (nm) ([5]; LNP with CRE/FLUC 1:1 mRNA): 79.4 nm; PDI ([5]; LNP with EGFP mRNA): 0.21; Size (nm) ([5]; LNP with EGFP mRNA): 109.3 nm |
| CCCCCCC(CCCCCC)CCCOC(=O)CCCCCCCN(CCCCCCCC(=O)OCCCC(CCCCCC)CCCCCC)C(=O)CCCN(C)C [Compound 2133, bis(4-hexyldecyl) 8,8′-((4-(dimethylamino)butanoyl)azanediyl) dioctanoate] | 7.96 | 2.5E + 02 | 4.4E + 04 | 5.8E + 04 | 3.9E + 04 | 3.8E + 04 | 1.574 | 98.7% | 0.08 | 87.7 nm |  |
| CCCCCC(CCCCC)CCCOC(=O)CCCCCCCN(CCCCCCCC(=O)OCCCC(CCCCC)CCCCC)C(=O)CN1CCCC1 [Compound 2233, bis(4-pentylnonyl) 8,8′-((2-(pyrrolidin-1-yl)acetyl)azanediyl) dioctanoate] | 6.83 | 2.8E + 06 | 6.1E + 07 | 4.1E + 04 | 4.7E + 06 | 5.4E + 08 | 0.077 | 91.2% | 0.04 | 85.5 nm |  |
